From PubChem BioAssay (NCI)
“And” between values parts separate entries of the source, which are not always exact repeats. Identical values can stand only once.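 Protocol summary: plate cells (96-well), add compound at 5 concentrations, incubate 48 h, interpolate endpoints linearly. Here, GI50 denotes the concentration required for 50% inhibition of growth. TGI denotes the concentration required for complete inhibition of growth.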 Where a SMILES comes first, the peptide text is derived from it. [ ]: non-standard residue; d: D form. The star is where a group is joined. ξ: configuration not given here. X16 = COC1=CC(=O)N(C(=O)C(O*)C(C)C)C1Cc1ccccc1; ξNMe2Val = CC(C)C(C(=O)*)N(C)C; NMeV = CN[CH](C(=O)O)C(C)C

Columns and labels:
Test in all cases: NCI tumour cell line growth inhibition, 48 h
A498 renal = system: A498 renal
A549 NSCLC = system: A549 NSCLC
CAKI-1 renal = system: CAKI-1 renal
CCRF-CEM leukemia = system: CCRF-CEM leukemia
COLO 205 colon = system: COLO 205 colon
DLD-1 colon = system: DLD-1 colon
DMS 114 small cell lung = system: DMS 114 small cell lung
DMS 273 small cell lung = system: DMS 273 small cell lung
DU-145 prostate = system: DU-145 prostate
EKVX NSCLC = system: EKVX NSCLC
HCC-2998 colon = system: HCC-2998 colon
HCT-15 colon = system: HCT-15 colon
HL-60(TB) leukemia = system: HL-60(TB) leukemia
HOP-18 NSCLC = system: HOP-18 NSCLC
HOP-62 NSCLC = system: HOP-62 NSCLC
HOP-92 NSCLC = system: HOP-92 NSCLC
HS 578T breast = system: HS 578T breast
HT29 colon = system: HT29 colon
IGROV1 ovarian = system: IGROV1 ovarian
KM12 colon = system: KM12 colon
KM20L2 colon = system: KM20L2 colon
LOX IMVI melanoma = system: LOX IMVI melanoma
M19-MEL melanoma = system: M19-MEL melanoma
MALME-3M melanoma = system: MALME-3M melanoma
MCF7 breast = system: MCF7 breast
MDA-MB-435 = system: MDA-MB-435
MDA-N = system: MDA-N
MOLT-4 leukemia = system: MOLT-4 leukemia
NCI-H226 lung = system: NCI-H226 lung
NCI-H23 lung = system: NCI-H23 lung
NCI-H460 lung = system: NCI-H460 lung
NCI-H522 lung = system: NCI-H522 lung
NCI/ADR-RES ovarian = system: NCI/ADR-RES ovarian
OVCAR-3 ovarian = system: OVCAR-3 ovarian
OVCAR-4 ovarian = system: OVCAR-4 ovarian
OVCAR-5 ovarian = system: OVCAR-5 ovarian
OVCAR-8 ovarian = system: OVCAR-8 ovarian
P388/ADR leukemia = system: P388/ADR leukemia
RPMI-8226 leukemia = system: RPMI-8226 leukemia
RXF 393 renal = system: RXF 393 renal
SF-268 CNS = system: SF-268 CNS
SF-295 CNS = system: SF-295 CNS
SF-539 CNS = system: SF-539 CNS
SK-MEL-2 melanoma = system: SK-MEL-2 melanoma
SK-MEL-28 melanoma = system: SK-MEL-28 melanoma
SK-MEL-5 melanoma = system: SK-MEL-5 melanoma
SK-OV-3 ovarian = system: SK-OV-3 ovarian
SN12C renal = system: SN12C renal
SN12K1 renal = system: SN12K1 renal
SNB-19 CNS = system: SNB-19 CNS
SNB-75 CNS = system: SNB-75 CNS
SNB-78 CNS = system: SNB-78 CNS
SW-620 colon = system: SW-620 colon
U251 CNS = system: U251 CNS
UACC-62 melanoma = system: UACC-62 melanoma
UO-31 renal = system: UO-31 renal
XF 498 CNS = system: XF 498 CNS
HCT-116 colon = system: HCT-116 colon
K-562 leukemia = system: K-562 leukemia
P388 leukemia = system: P388 leukemia
UACC-257 melanoma = system: UACC-257 melanoma

SMILES: COC1=CC(=O)N(C(=O)C(OC(=O)C2CCCN2C(=O)C2CCCN2C(=O)C(C(C)C)N(C)C(=O)C(NC(=O)C(C(C)C)N(C)C)C(C)C)C(C)C)C1Cc1ccccc1 (stereo unspecified) (ξNMe2Val-V[NMeV]PP-X16; configuration not given here)
- GI50 (A498 renal): 0.00643 µM
- TGI (A498 renal): 0.165 µM
- GI50 (A549 NSCLC): 0.00715 µM
- TGI (A549 NSCLC): > 4 µM
- GI50 (CAKI-1 renal): < 0.0004 µM
- TGI (CAKI-1 renal): > 4 µM
- TGI (CCRF-CEM leukemia): 0.00744 µM
- GI50 (COLO 205 colon): < 0.0004 µM
- TGI (COLO 205 colon): 0.00838 µM and 0.0415 µM
- GI50 (DLD-1 colon): < 0.0004 µM
- TGI (DLD-1 colon): > 4 µM
- GI50 (DMS 114 small cell lung): < 0.0004 µM
- TGI (DMS 114 small cell lung): 0.00601 µM and 0.00714 µM
- GI50 (DMS 273 small cell lung): < 0.0004 µM
- TGI (DMS 273 small cell lung): < 0.0004 µM
- TGI (DU-145 prostate): 0.00455 µM
- TGI (EKVX NSCLC): 3.95 µM
- GI50 (HCC-2998 colon): < 0.0004 µM
- GI50 (HCT-15 colon): < 0.0004 µM
- TGI (HCT-15 colon): 0.431 µM
- GI50 (HL-60(TB) leukemia): < 0.0004 µM
- TGI (HL-60(TB) leukemia): 0.00123 µM and < 0.0004 µM
- GI50 (HOP-18 NSCLC): > 4 µM
- TGI (HOP-18 NSCLC): > 4 µM
- GI50 (HOP-62 NSCLC): 0.00241 µM
- TGI (HOP-62 NSCLC): > 4 µM
- GI50 (HOP-92 NSCLC): 0.000954 µM
- TGI (HS 578T breast): 0.000903 µM
- TGI (HT29 colon): 0.0066 µM
- GI50 (IGROV1 ovarian): < 0.0004 µM
- TGI (IGROV1 ovarian): > 4 µM
- GI50 (KM12 colon): < 0.0004 µM
- TGI (KM12 colon): > 4 µM
- GI50 (KM20L2 colon): < 0.0004 µM
- GI50 (LOX IMVI melanoma): < 0.0004 µM
- TGI (LOX IMVI melanoma): > 4 µM
- GI50 (M19-MEL melanoma): < 0.0004 µM
- TGI (M19-MEL melanoma): > 4 µM
- GI50 (MALME-3M melanoma): < 0.0004 µM
- TGI (MALME-3M melanoma): > 4 µM
- GI50 (MCF7 breast): < 0.0004 µM
- TGI (MCF7 breast): > 4 µM
- TGI (MDA-MB-435): 0.000576 µM
- TGI (MDA-N): 0.000275 µM
- GI50 (MOLT-4 leukemia): < 0.0004 µM
- GI50 (NCI-H226 lung): 0.000406 µM
- TGI (NCI-H226 lung): 1.54 µM
- GI50 (NCI-H23 lung): < 0.0004 µM
- TGI (NCI-H23 lung): 0.0145 µM
- GI50 (NCI-H460 lung): < 0.0004 µM
- TGI (NCI-H460 lung): 0.519 µM
- TGI (NCI-H522 lung): 0.00182 µM
- TGI (NCI/ADR-RES ovarian): 0.256 µM
- GI50 (OVCAR-3 ovarian): < 0.0004 µM
- TGI (OVCAR-3 ovarian): 0.00383 µM and < 0.0004 µM
- GI50 (OVCAR-4 ovarian): 0.663 µM
- TGI (OVCAR-4 ovarian): > 4 µM
- GI50 (OVCAR-5 ovarian): > 4 µM
- TGI (OVCAR-5 ovarian): > 4 µM
- GI50 (OVCAR-8 ovarian): < 0.0004 µM
- TGI (P388/ADR leukemia): 0.556 µM
- GI50 (RPMI-8226 leukemia): < 0.0004 µM
- TGI (RPMI-8226 leukemia): > 4 µM
- GI50 (RXF 393 renal): < 0.0004 µM
- GI50 (SF-268 CNS): < 0.0004 µM
- TGI (SF-268 CNS): 0.31 µM
- GI50 (SF-295 CNS): < 0.0004 µM
- TGI (SF-295 CNS): 0.0074 µM and 0.00436 µM
- GI50 (SF-539 CNS): < 0.0004 µM
- TGI (SF-539 CNS): 0.00516 µM and 0.0481 µM
- GI50 (SK-MEL-2 melanoma): < 0.0004 µM
- TGI (SK-MEL-28 melanoma): 0.00681 µM
- GI50 (SK-MEL-5 melanoma): < 0.0004 µM
- GI50 (SK-OV-3 ovarian): 0.0042 µM
- GI50 (SN12C renal): < 0.0004 µM
- TGI (SN12K1 renal): 0.000527 µM
- GI50 (SNB-19 CNS): 0.00267 µM
- TGI (SNB-19 CNS): 0.118 µM
- GI50 (SNB-75 CNS): < 0.0004 µM
- GI50 (SNB-78 CNS): < 0.0004 µM
- TGI (SNB-78 CNS): 0.811 µM
- GI50 (SW-620 colon): < 0.0004 µM
- TGI (SW-620 colon): > 4 µM
- GI50 (U251 CNS): < 0.0004 µM
- TGI (U251 CNS): 0.0109 µM
- GI50 (UACC-62 melanoma): < 0.0004 µM
- TGI (UACC-62 melanoma): > 4 µM
- GI50 (UO-31 renal): > 4 µM
- TGI (UO-31 renal): > 4 µM
- GI50 (XF 498 CNS): < 0.0004 µM

SMILES: Nc1cc2c(cc1[N+](=O)[O-])[nH]c1c(-c3ccccc3)nccc12
- TGI (A498 renal): 79.7 µM
- TGI (A549 NSCLC): 69.6 µM
- TGI (CCRF-CEM leukemia): 74.7 µM
- TGI (COLO 205 colon): 44.3 µM
- TGI (DLD-1 colon): > 76.5 µM
- TGI (DMS 114 small cell lung): 35.7 µM
- TGI (DMS 273 small cell lung): 48.9 µM
- TGI (EKVX NSCLC): > 80.5 µM
- TGI (HCC-2998 colon): 31.5 µM
- TGI (HCT-116 colon): 36 µM
- TGI (HCT-15 colon): > 57.3 µM
- TGI (HL-60(TB) leukemia): 42.1 µM
- TGI (HOP-18 NSCLC): 50.8 µM
- TGI (HOP-62 NSCLC): 41.4 µM
- TGI (HOP-92 NSCLC): 42.7 µM
- TGI (HT29 colon): 46.8 µM
- TGI (IGROV1 ovarian): 35.9 µM
- TGI (K-562 leukemia): > 100 µM
- TGI (KM12 colon): 35.2 µM
- TGI (KM20L2 colon): > 82.8 µM
- TGI (LOX IMVI melanoma): 28.8 µM
- TGI (M19-MEL melanoma): 42.7 µM
- TGI (MALME-3M melanoma): 52.1 µM
- TGI (MCF7 breast): > 64.1 µM
- TGI (MOLT-4 leukemia): 19.8 µM
- TGI (NCI-H226 lung): 56.5 µM
- TGI (NCI-H23 lung): 39.5 µM
- TGI (NCI-H460 lung): 39.2 µM
- TGI (NCI-H522 lung): 27.5 µM
- TGI (NCI/ADR-RES ovarian): 41.4 µM
- TGI (OVCAR-3 ovarian): 48.5 µM
- TGI (OVCAR-4 ovarian): 50.6 µM
- TGI (OVCAR-5 ovarian): 98.3 µM
- TGI (OVCAR-8 ovarian): > 100 µM
- TGI (P388 leukemia): 41 µM
- TGI (P388/ADR leukemia): 44.5 µM
- TGI (RPMI-8226 leukemia): > 100 µM
- TGI (RXF 393 renal): 73.1 µM
- TGI (SF-268 CNS): > 100 µM
- TGI (SF-295 CNS): 53.4 µM
- TGI (SF-539 CNS): > 75.4 µM
- TGI (SK-MEL-2 melanoma): 38.2 µM
- TGI (SK-MEL-28 melanoma): 87.3 µM
- TGI (SK-MEL-5 melanoma): 31.7 µM
- TGI (SK-OV-3 ovarian): 55.9 µM
- TGI (SN12C renal): > 100 µM
- TGI (SN12K1 renal): 67.7 µM
- TGI (SNB-19 CNS): 76.7 µM
- TGI (SNB-75 CNS): 55.7 µM
- TGI (SNB-78 CNS): > 58.2 µM
- TGI (SW-620 colon): > 81.5 µM
- TGI (U251 CNS): 55.4 µM
- TGI (UACC-257 melanoma): 42.4 µM
- TGI (UACC-62 melanoma): 27.8 µM
- TGI (UO-31 renal): 28.9 µM
- TGI (XF 498 CNS): > 100 µM
